Measurements reported in ChEMBL document CHEMBL1150383, “Synthesis and pharmacological evaluation of peptide-mimetic protease-activated receptor-1 antagonists containing novel heterocyclic scaffolds” (Bioorg Med Chem, 2008).
Activity calls are given as the source filed them. The calls are words filed in the database; no cut-off is given here.

Experiments:
[1] = target: T1, Proteinase-activated receptor 1 (Homo sapiens) (UniProt P25116); test: Antagonist activity at PAR1 receptor assessed as inhibition of PAR1AP-induced platelet aggregation in human blood after 10 mins by chronolog dual channel aggregometry; assay type: functional
T1 sequence (whole entry): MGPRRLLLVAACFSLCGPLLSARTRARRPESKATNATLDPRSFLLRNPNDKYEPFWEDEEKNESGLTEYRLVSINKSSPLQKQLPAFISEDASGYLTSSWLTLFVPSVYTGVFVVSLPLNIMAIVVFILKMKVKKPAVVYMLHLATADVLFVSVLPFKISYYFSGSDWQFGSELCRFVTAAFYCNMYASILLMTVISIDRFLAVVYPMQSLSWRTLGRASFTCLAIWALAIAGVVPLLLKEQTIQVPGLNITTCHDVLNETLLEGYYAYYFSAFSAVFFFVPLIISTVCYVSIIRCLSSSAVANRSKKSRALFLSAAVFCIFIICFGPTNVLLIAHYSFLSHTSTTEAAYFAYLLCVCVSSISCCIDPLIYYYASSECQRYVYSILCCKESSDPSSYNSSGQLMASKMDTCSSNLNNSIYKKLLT

[2] = target: T2, Proteinase-activated receptor 1 (Rattus norvegicus) (UniProt P26824); test: Antagonist activity at PAR1 receptor assessed as reduction of PAR1AP-induced aortic ring contraction in Wistar rat at 10 to 100 uM after 15 mins; assay type: functional
T2 sequence (whole entry): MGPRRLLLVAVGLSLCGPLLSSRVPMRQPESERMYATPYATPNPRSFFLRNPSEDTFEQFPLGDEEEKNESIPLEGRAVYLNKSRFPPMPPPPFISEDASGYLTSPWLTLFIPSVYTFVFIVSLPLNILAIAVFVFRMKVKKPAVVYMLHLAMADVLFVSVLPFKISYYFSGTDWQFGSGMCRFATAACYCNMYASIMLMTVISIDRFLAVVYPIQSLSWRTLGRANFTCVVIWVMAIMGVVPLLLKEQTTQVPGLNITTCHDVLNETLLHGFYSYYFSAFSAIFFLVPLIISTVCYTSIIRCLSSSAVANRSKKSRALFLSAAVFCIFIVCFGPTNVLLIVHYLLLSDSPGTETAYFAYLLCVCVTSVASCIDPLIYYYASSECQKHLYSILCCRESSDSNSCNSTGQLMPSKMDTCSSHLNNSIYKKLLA

Row | Structure (SMILES) | Activity [1] | Activity [2] | IC75 [1] [µM]
1 | Cc1c(CN2CCCC2)c2cc(NC(=O)N[C@@H](Cc3ccc(F)c(F)c3)C(=O)N[C@@H](CCCNC(=N)N)C(=O)NCc3ccccc3)ccc2n1Cc1c(Cl)cccc1Cl | inactive | inactive | 
2 | Cc1c(CN2CCCC2)c2ccc(NC(=O)N[C@@H](Cc3ccc(F)c(F)c3)C(=O)N[C@@H](CCCNC(=N)N)C(=O)NCc3ccccc3)cc2n1Cc1c(Cl)cccc1Cl |  | 31 dyn/mg | 0.05
3 | Cc1c(CN2CCCC2)c2cc(NC(=O)N[C@@H](Cc3cccc4ccccc34)C(=O)N[C@@H](CCCNC(=N)N)C(=O)NCc3ccccc3)ccc2n1Cc1c(Cl)cccc1Cl | inactive | inactive | 
4 | COc1ccc(C[C@H](NC(=O)Nc2ccc3c(CN4CCCC4)c(C)n(Cc4c(Cl)cccc4Cl)c3c2)C(=O)N[C@@H](CCCNC(=N)N)C(=O)NCc2ccccc2)cc1 |  | Active | 0.02
5 | Cc1c(CN2CCCC2)c2ccc(NC(=O)N[C@@H](Cc3ccc4ccccc4c3)C(=O)N[C@@H](CCCNC(=N)N)C(=O)NCc3ccccc3)cc2n1Cc1c(Cl)cccc1Cl |  | Active | 0.8
6 | COc1ccc(C[C@H](NC(=O)Nc2ccc3c(c2)c(CN2CCCC2)c(C)n3Cc2c(Cl)cccc2Cl)C(=O)N[C@@H](CCCNC(=N)N)C(=O)NCc2ccccc2)cc1 | inactive | inactive | 
7 | COc1ccc(C[C@H](NC(=O)Nc2ccc3c(CN4CCCC4)cn(Cc4c(Cl)cccc4Cl)c3c2)C(=O)N[C@@H](CCCNC(=N)N)C(=O)NCc2ccccc2)cc1 |  | 94 dyn/mg | 0.1
8 | Cc1c(CN2CCCC2)c2cc(NC(=O)N[C@@H](Cc3ccc4ccccc4c3)C(=O)N[C@@H](CCCNC(=N)N)C(=O)NCc3ccccc3)ccc2n1Cc1c(Cl)cccc1Cl | inactive | inactive | 
